Assay results taken from BigSolDB 2.1.

Oc1ccccc1/C=N/c1ccccn1
solubility (mole fraction)
Settings | 268.15 K | 273.15 K | 278.15 K | 283.15 K | 288.15 K | 293.15 K | 298.15 K
in diethyl ether | 0.0581 | 0.0673 | 0.0873 | 0.107 | 0.14 | 0.17 | 0.231
in ethanol | 0.0099 | 0.0121 | 0.0152 | 0.0199 | 0.0266 | 0.035 | 0.0489
in methanol | 0.00796 | 0.0107 | 0.0146 | 0.0187 | 0.0255 | 0.0346 | 0.0503
in toluene | 0.135 | 0.174 | 0.215 | 0.26 | 0.316 | 0.361 | 0.423

Oc1ccc(Cl)cc1C=Nc1ccccn1
solubility (mole fraction)
Settings | 268.15 K | 273.15 K | 278.15 K | 283.15 K | 288.15 K | 293.15 K | 298.15 K | 303.15 K
in THF | 0.0285 | 0.0323 | 0.0362 | 0.0406 | 0.0466 | 0.0545 | 0.0649 | 0.0735
in dichloromethane | 0.00836 | 0.0124 | 0.0166 | 0.0193 | 0.0247 | 0.0306 | 0.0355 | 0.0429
in diethyl ether | 0.00329 | 0.00427 | 0.00513 | 0.00605 | 0.00728 | 0.00844 | 0.0105 | 0.0121
in toluene | 0.0103 | 0.0111 | 0.0136 | 0.017 | 0.0192 | 0.0228 | 0.0277 | 0.0339
